Reference: US5494804A, “Differential determination process of α-amylase isoenzyme activities” (Kikkoman Corporation, priority 1993, dated 1996)
Each block holds one compound with its values, some of them ahead of it.

Experiments:
human P-type α-amylase [1] = target: T1, human P-type α-amylase (Homo sapiens, UniProt P04746); assay: Km and reaction rate constant kp of the substrate for measuring α-amylase activity, P-type; type: biochemical
T1 construct: purchased International Reagents Corp., Japan CARIBZYME AMY
T1 sequence (P04746 16-511): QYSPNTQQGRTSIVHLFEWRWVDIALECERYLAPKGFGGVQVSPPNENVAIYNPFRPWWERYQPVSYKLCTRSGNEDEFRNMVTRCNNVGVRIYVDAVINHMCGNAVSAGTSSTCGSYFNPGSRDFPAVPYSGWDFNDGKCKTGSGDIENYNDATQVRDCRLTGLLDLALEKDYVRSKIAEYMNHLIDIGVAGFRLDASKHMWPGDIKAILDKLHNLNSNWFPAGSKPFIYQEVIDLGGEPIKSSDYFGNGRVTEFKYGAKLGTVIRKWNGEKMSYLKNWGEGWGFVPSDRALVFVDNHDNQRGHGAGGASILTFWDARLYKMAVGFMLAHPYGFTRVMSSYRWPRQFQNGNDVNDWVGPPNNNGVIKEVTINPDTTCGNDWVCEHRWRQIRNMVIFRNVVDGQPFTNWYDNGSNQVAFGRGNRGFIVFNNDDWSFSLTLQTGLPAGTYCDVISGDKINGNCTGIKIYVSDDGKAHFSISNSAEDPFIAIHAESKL
Description: (§1) In a 50 mM phosphate buffer (pH 7.0) containing 40 mM NaCl and 2 mM MgCl2 was dissolved N3G5-CNP obtained in Informative Example 1 to prepare substrate solutions for measuring α-amylase activity in a concentration of 0.16, 0.32, 0.48, 0.64, 0.80 and 0.96 mM.
(§2) A commercially available glucoamylase derived from Rhizopus sp. and β-glucosidase derived from almond were mixed and dissolved in a 50 mM phosphate buffer (pH 7.0) containing 40 mM NaCl and 2 mM MgCl2 to the concentration of the glucoamylase and β-glucosidase being 163 units/ml and 16.3 units/ml, respectively. In this connection, these commercially available glucoamylase and β-glucosidase used were manufactured by Toyobo Co., Ltd.
(§3) Each of commercially available human P-type α-amylase and human S-type α-amylase was dissolved in distilled water to ensure that the concentration of each amylase was about 150 IU/liter.
The commercially available human α-amylases used were CARIBZYME AMY manufactured by International Reagents Corp., Japan. […]
(§4) As for the human P-type α-amylase solution and human S-type α-amylase solution, 1.0 ml of a coupled enzyme solution was added to and stirred with 250 μl of the α-amylase solution, warmed to 37° C. for 1 minute, and 2.0 ml of each concentration of the N3G5-CNP solution was added and stirred, warmed to 37° C. for 2.5 minutes to measure the variable absorbances at 400 nm for 2 minutes. […]

human S-type α-amylase [2] = target: T2, human S-type α-amylase (Homo sapiens, UniProt P0DUB6); assay: Km and reaction rate constant ks of the substrate for measuring α-amylase activity, S-type; type: biochemical
T2 construct: purchased International Reagents Corp., Japan CARIBZYME AMY
T2 sequence (P0DUB6 16-511): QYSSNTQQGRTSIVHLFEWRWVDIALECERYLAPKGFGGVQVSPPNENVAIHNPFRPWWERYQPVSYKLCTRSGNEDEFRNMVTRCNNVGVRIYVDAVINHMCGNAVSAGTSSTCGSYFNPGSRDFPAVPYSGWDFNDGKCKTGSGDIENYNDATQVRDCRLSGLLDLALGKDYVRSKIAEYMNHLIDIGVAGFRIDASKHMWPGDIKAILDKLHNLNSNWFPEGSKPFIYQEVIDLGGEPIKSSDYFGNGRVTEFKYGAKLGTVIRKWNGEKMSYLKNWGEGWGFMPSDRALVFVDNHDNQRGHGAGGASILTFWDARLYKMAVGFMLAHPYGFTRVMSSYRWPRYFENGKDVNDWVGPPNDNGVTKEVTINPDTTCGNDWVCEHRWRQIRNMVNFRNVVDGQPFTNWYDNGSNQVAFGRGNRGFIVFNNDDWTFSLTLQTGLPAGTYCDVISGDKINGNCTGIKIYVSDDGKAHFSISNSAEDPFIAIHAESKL
Description: as §1, §2, §3
The commercially available human α-amylases used were CARIBZYME AMY manufactured by International Reagents Corp., Japan.
The molecular extinction coefficient (ε) of 2-chloro-4-nitrophenol is defined 16,100 and for α-amylase activity the amount of enzyme which decomposes 1 μmol of G5-CNP at 37° C. for a minute is defined as 1 International Unit (IU) (and so forth).
as §4
For six solutions of each of the human P-type α-amylase and the human S-type α-amylase, 1.0 ml of the coupled enzyme solution was added to and stirred with 250 μl of the α-amylase solution and warmed to 37° C. for 1 minute, respectively. 2.0 ml of N3G5-CNP solution was added and stirred, and the mixture was warmed to 37° C. for 2.5 minutes to measure the variable absorbances at 400 nm for 2 minutes. […]

α-amylase = assay: Km value of G5-CNP (isoenzyme not stated); type: biochemical, human; details: α-glucosidase instead of glucoamylase as coupled enzyme
Description: As for the human P-type α-amylase solution and human S-type α-amylase solution, 1.0 ml of a coupled enzyme solution was added to and stirred with 250 μl of the α-amylase solution, warmed to 37° C. for 1 minute, and 2.0 ml of each concentration of the N3G5-CNP solution was added and stirred, warmed to 37° C. for 2.5 minutes to measure the variable absorbances at 400 nm for 2 minutes. At the same time, a blank test was carried out with 250 μl of distilled water instead of the α-amylase solution. The measurements thus obtained were plotted by the Lineweaver-Burk method to calculate the Km value by the method of least squares.
The Km value and the reaction rate constants (kp and ks) of G5-CNP and the inhibition constants a and b of DOG3 were measured in the same manner as in Example 1 except that a commercially available G5-CNP [manufactured by Daiichi Pure Chemicals Co., Ltd.] on behalf of N3G5-CNP as the substrate for measuring α-amylase was used and 406 units/liter of α-glucosidase [manufactured by Toyobo Co., Ltd.] was used on behalf of glucoamylase as a coupled enzyme.

human S-type α-amylase [3] = target: T2, human S-type α-amylase; assay: Inhibition of human S-type α-amylase by an inhibitor (variable absorbance at 400 nm, chromogenic substrate, coupled enzymes); type: biochemical
Description: (§5) (a) Preparation of a mixed solution of the substrate (N3G5-CNP) and the inhibitor DOG3
(§6) N3G5-CNP and DOG3 obtained in Informative Example 2 were dissolved in a 50 mM phosphate buffer (pH 7.0) containing 40 mM NaCl and 2 mM MgCl2 so that the N3G5-CNP has a concentration of 3.25 mM (final concentration of 2.0 mM) and DOG3 has seven concentrations of 0.05, 0.11, 0.54, 1.09, 2.16, 3.25, 5.41 mM (final concentrations of 0.03, 0.07, 0.33, 0.67, 1.33, 2.00 and 3.33 mM, respectively).
(§7) The commercially available human P-type α-amylase and human S-type α-amylase were dissolved in distilled water so that they have a concentration of about 150 IU/liter.
(§8) It was prepared in the same manner as described in (b) in the section (1).
(§9) After 250 μl of the α-amylase solution was admixed with 1.0 ml of the coupled enzyme solution and warmed to 37° C. for 1 minute, 2.0 ml of each of the mixtures (having 7 concentration) of the substrate (N3G5-CNP) and the inhibitor DOG3 was added, stirred and warmed to 37° C. for 2.5 minutes, and the variable absorbance in each sample at 400 nm was measured for 2 minutes.
(§10) The activities of human P-type α-amylase and human S-type α-amylase containing 0 mM of DOG3 (without DOG3) were regarded as 100% and the relative activities of human P-type α-amylase and human S-type α-amylase in different concentrations of DOG3 were obtained from each determined value as mentioned above. In this connection, a open circle means P-type α-amylase and a closed circle means S-type α-amylase. […]
(§11) On the other hand, procedures were carried out in the same manner as described above except that 1.0 ml of the coupled enzyme solution alone was used on behalf of the mixed solution in (c) to obtain the value of T with this method.
(§12) The values of kp, ks, a and b in the wheat-germ inhibitor method were 1.1×10^-3, 1.1×10^-3, 0,262 and 0.726 as a result of the measurement. These values as well as those of T and W obtained in this method were substituted for the equations (3) and (4) to obtain the values of P and S (IU/liter). […]

human P-type α-amylase [4] = target: T1, human P-type α-amylase; assay: Inhibition of human P-type α-amylase by an inhibitor (variable absorbance at 400 nm, chromogenic substrate, coupled enzymes); type: biochemical
Description: as §5, §6, §7, §8, §9, §10, §11, §12

[5] = substrate final concentration 2.0 mM, 37° C., inclination of absorbance versus activity line, glucoamylase and β-glucosidase
[6] = α-glucosidase instead of glucoamylase as coupled enzyme

reaction rate constant kp (human P-type α-amylase [1]; [5]): 1.1×10^-3
Km (human S-type α-amylase [2]; Lineweaver-Burk, 37° C., pH 7.0, glucoamylase and β-glucosidase as coupled enzymes): 270 µM
reaction rate constant ks (human S-type α-amylase [2]; [5]): 1.1×10^-3
SMILES: [N-]=[N+]=NC[C@H]1O[C@H](O[C@H]2[C@H](O)[C@@H](O)[C@@H](O[C@H]3[C@H](O)[C@@H](O)[C@@H](O[C@H]4[C@H](O)[C@@H](O)[C@@H](O[C@H]5[C@H](O)[C@@H](O)[C@H](Oc6ccc([N+](=O)[O-])cc6Cl)O[C@@H]5CO)O[C@@H]4CO)O[C@@H]3CO)O[C@@H]2CO)[C@H](O)[C@@H](O)[C@@H]1O [N3G5-CNP, 2-chloro-4-nitro-phenyl 6^5-azido-6^5-deoxy-β-D-maltopentaoside]

SMILES: O=[N+]([O-])c1ccc(O[C@@H]2O[C@H](CO)[C@@H](O[C@H]3O[C@H](CO)[C@@H](O[C@H]4O[C@H](CO)[C@@H](O[C@H]5O[C@H](CO)[C@@H](O[C@H]6O[C@H](CO)[C@@H](O)[C@H](O)[C@H]6O)[C@H](O)[C@H]5O)[C@H](O)[C@H]4O)[C@H](O)[C@H]3O)[C@H](O)[C@H]2O)c(Cl)c1 [G5-CNP, 2-chloro-4-nitrophenyl β-D-maltopentaoside, reference compound]
reaction rate constant kp (human P-type α-amylase [1]; [6]): 1.2×10^-3
reaction rate constant ks (human S-type α-amylase [2]; [6]): 1.2×10^-3
Km (α-amylase): 450 µM

activity at 330 µM (human S-type α-amylase [3]; DOG3 0.33 mM final, substrate N3G5-CNP 2.0 mM final, 37° C., pH 7.0, read-out: relative activity of human S-type α-amylase (without DOG3 = 100%)): 67.9%
inhibition at 500 µM (human S-type α-amylase [3]; DOG3 0.50 mM, substrate G5-CNP, α-glucosidase and β-glucosidase as coupled enzymes, read-out: inhibition constant b (to S-type α-amylase)): 14.1%
inhibition at 330 µM (human S-type α-amylase [3]; pH 7, DOG3 0.33 mM, substrate N3G5-CNP 2.0 mM, read-out: inhibition constant b (to S-type α-amylase) = 1 - relative activity): 32.1%
activity at 330 µM (human P-type α-amylase [4]; DOG3 0.33 mM final, substrate N3G5-CNP 2.0 mM final, 37° C., pH 7.0, read-out: relative activity of human P-type α-amylase (without DOG3 = 100%)): 13.1%
difference of the relative activities of P-type and S-type α-amylases (maximum) (human P-type α-amylase [4]; DOG3 0.33 mM, substrate N3G5-CNP, S-type minus P-type, as fraction): 0.548
inhibition at 500 µM (human P-type α-amylase [4]; DOG3 0.50 mM, substrate G5-CNP, α-glucosidase and β-glucosidase as coupled enzymes, read-out: inhibition constant a (to P-type α-amylase)): 61.7%
inhibition at 330 µM (human P-type α-amylase [4]; pH 7, DOG3 0.33 mM, substrate N3G5-CNP 2.0 mM, read-out: inhibition constant a (to P-type α-amylase) = 1 - relative activity): 86.9%
SMILES: C[C@H]1O[C@H](O[C@H]2[C@H](O)[C@@H](O)[C@@H](O[C@H]3[C@H](O)[C@@H](O)C(O)O[C@@H]3CO)O[C@@H]2CO)[C@H](O)[C@@H](O)[C@@H]1O (stereo partly drawn) [DOG3, O-6-deoxy-α-D-glucopyranosyl-(1→4)-O-α-D-glucopyranosyl-(1→4)-D-glucose]
